pIC50: −log10 of the molar value. Read-outs that look alike come from different tables or passages of the source.
Tests used:
KDM5A = KDM5A (Homo sapiens (Human), UniProt P29375); experiment: Biochemical KDM5A Inhibition Assay (HTRF); conditions: KDM5A protein, biotin-labelled H3K4-Me3 substrate
Method: Biochemical KDM5A Inhibition Assay
Using 384-well white Greiner784075 (Greiner), representative compounds were characterized for their inhibition of KDM5A using HTRF® technology (Cisbio Bioassays). Briefly, the test compounds, reference compounds, and DMSO control (typical compound concentration range 1 μM-[…], final assay concentration (FAC*) of DMSO 0.5%) were added to 384-well plate by the Echo® acoustic dispensing platform (Labcyte). Five (5) 1l of KDM5A protein (produced by the method described in Nat Chem Biol 12, 531-538 (2016)). (5-20 nM FAC*) in assay buffer (50 mM MES, 50 mM NaCl, 1 mM TCEP, 0.01% v/v Tween 20, 0.03% BSA, pH 6.5) was added to wells and plates were incubated for 10-20 minutes at 25 degrees celsius. Then, 5 μl of alpha-ketoglutaric acid (100 μM FAC*), biotin-labelled H3K4-Me3 substrate (Anaspec Cat #AS-64357-1; 200 nM FAC*), Fe(II)SO4 (100 μM FAC*) and ascorbic acid (2 mM FAC*) in assay buffer was added to wells and plates were incubated for 20 minutes at room temperature. The reaction was stopped with the addition of 10 μl of anti-H3K4-Me2-Eu(K) (Cisbio Bioassays Cat #61KA2KAH; 0.75 nM FAC**)+Streptavidin XL665 (Cisbio Bioassays Cat #610SAXLB; 25 nM FAC**) in HTRF detection buffer (Cisbio Bioassays Cat #62SDBRDF). The mixture was incubated for 30 minutes at room temperature before 340 nm excitation and measurement of dual emission at 620 nm and 665 run. *FAC: final assay concentration calculated based on 10 μl of the assay buffer**FAC: final assay concentration calculated based on 20 μl of the detection buffer
The raw data (a 665 nm and a 620 nm reading from each well) for individual assay plates were analyzed. The ratio of emissions was calculated using the following calculation: Ratio=(665 nm emission/620 nm emission)×10000. […] Compound IC50 values were calculated from graphs of % inhibition plotted against compound concentration, using a four parameter curve fit. [Results]

[1] = Metabolic Stability in Human Liver Microsomes; type: in vitro ADME
Method: Metabolic Stability in Human Liver Microsomes
Human liver microsome (BD Gentest Corporation, Cat No. #452161) incubations were conducted in duplicate in 96-well plates. Each well contains 40 μL of 0.1 M potassium phosphate buffer (pH 7.4), 4.125 mM MgCl2, 0.625 mg/mL liver microsomes, and test compound (1.25 μM). After 5-min preincubation at 37° C., 10 uL of 5.0 mM NADPH in 0.1M potassium phosphate buffer was added to initiate the enzymatic reaction. The final component concentrations are 0.1M potassium phosphate buffer (pH 7.4), 1.0 mM NADPH, 3.3 mM MgCl2, 0.5 mg/mL liver microsomes, and test compound (1.0 μM). Reactions were terminated at 0 and 60 min by adding 200 μL of ice-cold acetonitrile containing internal standard.
LC-MS/MS analysis was conducted as specified below.
The remaining at 60 min (%) of test compound was calculated from the peak area ratio (test compound/internal standard) of samples collected 0 and 60 min after the start of the reaction according to the formula described below. Remaining at 60 min (%)=peak area ratio of sample collected at 60 min/peak area ratio of sample collected at 0 min×100 [Results]

[2] = Brain Concentration in Mice; type: in vivo; conditions: mouse, mice (C57BL/6)
Method: Brain Concentration in Mice
Test compounds were orally administered to mice (C57BL/6) at 1 or 3 mg/kg. Brain samples were collected 2 h after the administration and homogenized with 3-fold volumes of distilled water.
LC-MS/MS analysis was conducted as specified below. Standard calibration samples were prepared using the same matrix and analyzed in the same manner.
Standard calibration samples were analyzed to calculate a regression equation from the peak area ratio (test compound/internal standard). The peak area ratio was determined for a measurement sample and assigned to the regression equation to calculate an assay value.

[3] = human, microsomes, 1 h, 1 μM, pH 7.4
[4] = po, orally administered, 1 mg/kg, brain 2 h after administration, read-out: Unbound-Brain Concentration at 2 h at 1 mg/kg
[5] = 0.5 mg/mL liver microsomes, 1.0 μM test compound, 1.0 mM NADPH, 37° C., 60 min

Sequence of KDM5A (P29375 whole entry): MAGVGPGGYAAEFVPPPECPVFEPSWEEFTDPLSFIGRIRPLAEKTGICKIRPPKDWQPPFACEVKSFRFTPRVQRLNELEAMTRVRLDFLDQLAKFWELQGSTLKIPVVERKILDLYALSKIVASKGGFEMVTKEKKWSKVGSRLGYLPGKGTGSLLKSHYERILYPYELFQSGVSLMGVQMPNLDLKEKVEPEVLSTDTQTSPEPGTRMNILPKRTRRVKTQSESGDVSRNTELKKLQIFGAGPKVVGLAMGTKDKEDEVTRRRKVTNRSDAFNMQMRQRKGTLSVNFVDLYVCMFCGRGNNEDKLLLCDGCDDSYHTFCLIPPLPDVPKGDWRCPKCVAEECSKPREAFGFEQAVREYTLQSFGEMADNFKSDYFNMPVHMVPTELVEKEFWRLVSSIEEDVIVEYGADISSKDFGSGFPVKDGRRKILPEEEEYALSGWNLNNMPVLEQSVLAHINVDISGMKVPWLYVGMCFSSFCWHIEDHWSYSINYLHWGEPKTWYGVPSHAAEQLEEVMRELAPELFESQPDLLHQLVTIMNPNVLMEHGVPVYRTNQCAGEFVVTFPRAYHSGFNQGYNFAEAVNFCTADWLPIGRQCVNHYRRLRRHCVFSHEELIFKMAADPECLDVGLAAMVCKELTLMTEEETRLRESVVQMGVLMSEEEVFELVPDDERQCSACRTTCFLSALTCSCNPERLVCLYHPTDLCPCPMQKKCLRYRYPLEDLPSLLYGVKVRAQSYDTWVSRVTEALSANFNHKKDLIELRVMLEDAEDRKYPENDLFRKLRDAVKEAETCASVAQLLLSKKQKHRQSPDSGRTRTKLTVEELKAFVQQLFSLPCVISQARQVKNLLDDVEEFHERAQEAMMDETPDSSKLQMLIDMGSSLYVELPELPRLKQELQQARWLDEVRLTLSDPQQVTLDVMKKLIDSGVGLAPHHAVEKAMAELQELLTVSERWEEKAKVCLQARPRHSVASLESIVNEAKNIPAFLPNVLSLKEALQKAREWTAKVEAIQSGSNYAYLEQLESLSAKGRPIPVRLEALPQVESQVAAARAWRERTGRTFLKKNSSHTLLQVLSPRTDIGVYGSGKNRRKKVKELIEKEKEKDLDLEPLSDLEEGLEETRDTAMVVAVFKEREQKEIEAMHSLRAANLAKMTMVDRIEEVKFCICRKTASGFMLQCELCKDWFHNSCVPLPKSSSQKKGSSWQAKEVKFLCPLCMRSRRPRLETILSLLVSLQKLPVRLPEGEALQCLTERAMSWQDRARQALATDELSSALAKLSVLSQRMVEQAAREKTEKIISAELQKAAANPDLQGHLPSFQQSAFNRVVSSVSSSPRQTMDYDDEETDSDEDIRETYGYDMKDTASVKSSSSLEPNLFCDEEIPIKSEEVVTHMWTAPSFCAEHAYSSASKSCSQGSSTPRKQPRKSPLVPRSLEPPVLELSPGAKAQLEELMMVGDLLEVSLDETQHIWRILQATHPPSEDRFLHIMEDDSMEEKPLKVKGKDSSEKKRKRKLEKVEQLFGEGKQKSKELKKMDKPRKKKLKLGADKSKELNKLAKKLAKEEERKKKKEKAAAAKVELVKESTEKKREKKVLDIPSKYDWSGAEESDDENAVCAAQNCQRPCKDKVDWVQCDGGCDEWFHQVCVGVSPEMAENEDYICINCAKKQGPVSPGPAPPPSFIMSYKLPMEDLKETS

SMILES	pIC50 (KDM5A)	Metabolic stability in human liver microsomes (% remaining at 60 min) ([1]; human, microsomes, 1 h)	also measured
CC(C)n1cnc(C(=O)N2C[C@@H]3[C@H](C2)[C@H]3C2=NOC(C)(C)C2)c1 [Example 1, [(1R,5S,6r)-6-(5,5-dimethyl-4,5-dihydro-1,2-oxazol-3-yl)-3-azabicyclo[3.1.0]hex-3-yl](1-isopropyl-1H-imidazol-4-yl)methanone]	7.70		Metabolic stability in human liver microsomes (% remaining at 60 min) [1, 3]: 95%; concentration at 2 h ([2]; brain, oral, 2 h, values with * obtained by proportional calculation from the 3 mg/kg data, read-out: Unbound-Brain Concentration at 2 h at 1 mg/kg): 93.7 ng/g
CC[C@H](C)n1cnc(C(=O)N2C[C@@H]3[C@H](C2)[C@H]3C2=NOC(C)(C)C2)c1 [Example 12, {1-[(2S)-butan-2-yl]-1H-imidazol-4-yl}[(1R,5S,6S)-6-(5,5-dimethyl-4,5-dihydro-1,2-oxazol-3-yl)-3-azabicyclo[3.1.0]hex-3-yl]methanone]	7.22		Metabolic stability in human liver microsomes (% remaining at 60 min) [1, 3]: 100%; concentration at 2 h [2, 4]: 10.8 ng/g
CC1(C)CC([C@H]2[C@@H]3CN(C(=O)c4cn(C5(C)CC5)cn4)C[C@@H]32)=NO1 [Example 33, [(1R,5S,6r)-6-(5,5-dimethyl-4,5-dihydro-1,2-oxazol-3-yl)-3-azabicyclo[3.1.0]hex-3-yl][1-(1-methylcyclopropyl)-1H-imidazol-4-yl]methanone]	7.52		Metabolic stability in human liver microsomes (% remaining at 60 min) [1, 3]: 103%; concentration at 2 h [2, 4]: 62.1 ng/g
CC(C)n1cnc(C(=O)N2C[C@@H]3[C@H](C2)[C@H]3C(=O)C2CC2)c1 [Example 75, cyclopropyl{(1R,5S,6r)-3-[(1-isopropyl-1H-imidazol-4-yl)carbonyl]-3-azabicyclo[3.1.0]hex-6-yl}methanone]	6.40	102%	
CC(C)n1cnc(C(=O)N2C[C@@H]3[C@H](C2)[C@@]3(C)C2=NOC3(CC3)C2)c1 [Example 84, (1-isopropyl-1H-imidazol-4-yl)[(1R,5S,6r)-6-methyl-6-(4-oxa-5-azaspiro[2.4]hept-5-en-6-yl)-3-azabicyclo[3.1.0]hex-3-yl]methanone]	7.52		Metabolic stability in human liver microsomes (% remaining at 60 min) [1, 5]: 92%
CC(C)n1cnc(C(=O)N2C[C@@H]3[C@H](C2)[C@@]3(C)C(=O)NC(C)(C)C)c1 [Example 87, (1R,5S,6r)-N-tert-butyl-6-methyl-3-[1-(propan-2-yl)-1H-imidazole-4-carbonyl]-3-azabicyclo[3.1.0]hexane-6-carboxamide]	7.40		Metabolic stability in human liver microsomes (% remaining at 60 min) [1, 5]: 99%
CC(c1cc(C(=O)N2C[C@@H]3C(C4=NOC(C)(C)C4)[C@@H]3C2)n[nH]1)C1CC1 (stereo partly drawn) [Example 90, [5-(1-cyclopropylethyl)-1H-pyrazol-3-yl][(1R,5S,6r)-6-(5,5-dimethyl-4,5-dihydro-1,2-oxazol-3-yl)-3-azabicyclo[3.1.0]hex-3-yl]methanone]	7.30		Metabolic stability in human liver microsomes (% remaining at 60 min) [1, 5]: 100%
CC1CC(C2[C@H]3CN(C(=O)c4cc(C(C)C)[nH]n4)C[C@@H]23)=NO1 (stereo partly drawn) [Example 93, (5-isopropyl-1H-pyrazol-3-yl)[(1R,5S,6r)-6-(5-methyl-4,5-dihydro-1,2-oxazol-3-yl)-3-azabicyclo[3.1.0]hex-3-yl]methanone]	6.70	86%	
CC(C)c1cc(C(=O)N2C[C@@H]3[C@H](C2)[C@H]3C2=NO[C@H]3C[C@@H]23)n[nH]1 [Example 96, (5-isopropyl-1H-pyrazol-3-yl){(1R,5S,6r)-6-[(1S,5S)-2-oxa-3-azabicyclo[3.1.0]hex-3-en-4-yl]-3-azabicyclo[3.1.0]hex-3-yl}methanone]	7.52	83%	
CCN1C([C@H]2[C@@H]3CN(C(=O)c4cc(C(C)C)[nH]n4)C[C@@H]32)=NOC1(C)C [Example 110, [(1R,5S,6r)-6-(4-ethyl-5,5-dimethyl-4,5-dihydro-1,2,4-oxadiazol-3-yl)-3-azabicyclo[3.1.0]hex-3-yl](5-isopropyl-1H-pyrazol-3-yl)methanone]	7.30	85%	
Cc1nnc([C@H]2[C@@H]3CN(C(=O)c4cc(C(C)C)[nH]n4)C[C@@H]32)o1 [Example 119, (5-isopropyl-1H-pyrazol-3-yl)[(1R,5S,6r)-6-(5-methyl-1,3,4-oxadiazol-2-yl)-3-azabicyclo[3.1.0]hex-3-yl]methanone]	6.52	102%	
CC(C)c1cc(C(=O)N2C[C@@H]3[C@H](C2)[C@H]3c2nncn2-c2ccccc2)n[nH]1 [Example 121, (5-isopropyl-1H-pyrazol-3-yl)[(1R,5S,6r)-6-(4-phenyl-4H-1,2,4-triazol-3-yl)-3-azabicyclo[3.1.0]hex-3-yl]methanone]	7.40	114%	
Cc1nnc([C@H]2[C@@H]3CN(C(=O)c4cc(C(C)C)[nH]n4)C[C@@H]32)n1C1CCC1 [Example 124, [(1R,5S,6r)-6-(4-cyclobutyl-5-methyl-4H-1,2,4-triazol-3-yl)-3-azabicyclo[3.1.0]hex-3-yl](5-isopropyl-1H-pyrazol-3-yl)methanone]	7.40	97%	
COc1ccc2nnc([C@H]3[C@@H]4CN(C(=O)c5cc(C(C)C)[nH]n5)C[C@@H]43)n2c1 [Example 131, (5-isopropyl-1H-pyrazol-3-yl)[(1R,5S,6r)-6-(6-methoxy[1,2,4]triazolo[4,3-a]pyridin-3-yl)-3-azabicyclo[3.1.0]hex-3-yl]methanone]	8.00	84%	
CC(C)NC(=O)[C@H]1[C@@H]2CN(C(=O)c3cc(C(C)C)[nH]n3)C[C@@H]21 [Example 136, (1R,5S,6r)-N-(propan-2-yl)-3-[5-(propan-2-yl)-1H-pyrazole-3-carbonyl]-3-azabicyclo[3.1.0]hexane-6-carboxamide]	7.30	97%	
C[C@]1(C2=NOC3(CC3)C2)[C@@H]2CN(C(=O)c3cc(C4CC4)[nH]n3)C[C@@H]21 [Example 144, (5-cyclopropyl-1H-pyrazol-3-yl)[(1R,5S,6r)-6-methyl-6-(4-oxa-5-azaspiro[2.4]hept-5-en-6-yl)-3-azabicyclo[3.1.0]hex-3-yl]methanone]	7.70		Metabolic stability in human liver microsomes (% remaining at 60 min) [1, 5]: 101%
CC(C)c1cc(C(=O)N2C[C@@H]3[C@H](C2)[C@@]3(C)C(=O)NC(C)(C)C)n[nH]1 [Example 145, (1R,5S,6r)-N-tert-butyl-6-methyl-3-[5-(propan-2-yl)-1H-pyrazole-3-carbonyl]-3-azabicyclo[3.1.0]hexane-6-carboxamide]	7.05	99%	
CC(C)c1cc(C(=O)N2CC[C@@H](NC(=O)C3CC3)C2)[nH]n1 [comparative compound, (R)—N-(1-(3-isopropyl-1H-pyrazole-5-carbonyl)pyrrolidin-3-yl)cyclopropane carboxamide, reference compound]			concentration at 2 h ([2]; brain, oral, 2 h, comparative compound, dose not restated in the sentence, read-out: Unbound-Brain Concentration at 2 h): 2.5 ng/g
